The target of one test is T1, B-RAF V600E (Homo sapiens, UniProt P15056, V600E).
T1 construct: expressed in transfected cells; host or cells: T-Rex 293 cells (Invitrogen #R71007)
Nature of the test: Target protein degradation, assay C: T-Rex 293 cells, HA-BRAF_V600E, 384 well format. It is filed as cell-based. Conditions: T-Rex 293 HA-BRAF_V600E cells, 24 hours, Examples 83-269; for DC50: Assay C; for Dmax: T-REx-293, Assay C. The gist of the method: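 After 24 h exposure to an 11-point 1:3 series (300 nM–5 pM, 0.5% DMSO), fixed T-Rex 293 cells carrying HA-BRAF V600E (induced with 1 ng/mL doxycycline) were stained anti-HA and imaged. DC50 and Dmax were derived from BRAF intensity relative to control, and cytotoxicity from nuclear counts.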

The target in a further test is T2, B-RAF G466V (Homo sapiens, UniProt P15056, G466V).
T2 construct: expressed in transfected cells; host or cells: T-Rex 293 cells (Invitrogen #R71007)
T2 sequence (P15056 whole entry G466V): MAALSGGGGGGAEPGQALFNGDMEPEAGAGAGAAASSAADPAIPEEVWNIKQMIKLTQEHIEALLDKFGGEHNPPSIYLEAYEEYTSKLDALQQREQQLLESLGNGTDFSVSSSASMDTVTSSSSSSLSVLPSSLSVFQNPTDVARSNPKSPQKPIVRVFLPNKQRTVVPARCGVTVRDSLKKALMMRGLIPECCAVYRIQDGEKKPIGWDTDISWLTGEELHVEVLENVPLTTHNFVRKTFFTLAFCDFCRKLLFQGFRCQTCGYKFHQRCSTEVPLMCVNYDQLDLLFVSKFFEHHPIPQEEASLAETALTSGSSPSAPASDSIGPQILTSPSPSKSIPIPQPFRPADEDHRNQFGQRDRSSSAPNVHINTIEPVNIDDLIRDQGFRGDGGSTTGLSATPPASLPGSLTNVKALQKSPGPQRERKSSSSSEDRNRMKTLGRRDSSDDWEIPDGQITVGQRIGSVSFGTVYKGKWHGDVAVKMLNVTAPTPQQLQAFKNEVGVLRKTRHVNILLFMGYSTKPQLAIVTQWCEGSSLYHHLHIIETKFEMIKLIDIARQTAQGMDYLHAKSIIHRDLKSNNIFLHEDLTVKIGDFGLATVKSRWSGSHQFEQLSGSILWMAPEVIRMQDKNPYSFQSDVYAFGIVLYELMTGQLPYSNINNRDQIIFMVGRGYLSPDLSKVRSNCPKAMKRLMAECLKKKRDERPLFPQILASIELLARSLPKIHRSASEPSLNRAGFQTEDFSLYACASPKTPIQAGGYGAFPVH
Nature of the test: Target protein degradation, assay D: T-Rex 293 cells, HA-BRAF_G466V, 384 well format. Type of test: cell-based. The settings on record: T-Rex 293 HA-BRAF_G466V cells, 24 hours, Examples 83-269; for DC50: Assay D; for Dmax: T-REx-293, Assay D. The gist of the method: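 Degradation measured by high-content imaging of anti-HA immunofluorescence in fixed T-Rex 293 cells carrying inducible HA-BRAF G466V (1 ng/mL doxycycline), after 24 h PROTAC exposure at 37 °C over 300 nM–5 pM (1:3, 11 points, 0.5% DMSO). Outputs DC50 and Dmax as % of control; nuclei counts against DMSO wells gauge toxicity.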

The structures appear in SMILES notation.

T1 sequence (P15056 whole entry V600E): as the sequence (P15056 whole entry G466V) above, with V466G, V600E counted along it

At B-RAF V600E, `COc1ccc(N2CCC(CN3CCN(c4ccc(-n5cnc6ccc(Oc7c(F)ccc(NS(=O)(=O)N8CC[C@@H](F)C8)c7C#N)cc6c5=O)cn4)CC3)CC2)cc1C(=O)NC1CCC(=O)NC1=O` (stereo partly drawn) [Example 141, 5-(4-{[4-(5-{6-[2-cyano-6-fluoro-3-({[(3R)-3-fluoropyrrolidin-1-yl]sulfonyl}amino)phenoxy]-4-oxo-3,4-dihydroquinazolin-3-yl}pyridin-2-yl)piperazin-1-yl]methyl}piperidin-1-yl)-N-(2,6-dioxopiperidin-3-yl)-2-methoxybenzamide] gave a DC50 of 50 to 500 nM and a Dmax not above 35%. On B-RAF G466V, the DC50 fell in the range of 1 to 10 nM and the Dmax was not above 35%.

Turning to `N#Cc1c(NS(=O)(=O)N2CC[C@@H](F)C2)ccc(F)c1Oc1ccc2ncn(-c3ccc(N4CCN(CC5CCN(c6ccc(N7CCC(=O)NC7=O)c(F)c6)CC5)CC4)nc3)c(=O)c2c1` [Example 142, (3R)-N-{2-cyano-3-[(3-{6-[4-({1-[4-(2,4-dioxo-1,3-diazinan-1-yl)-3-fluorophenyl]piperidin-4-yl}methyl)piperazin-1-yl]pyridin-3-yl}-4-oxo-3,4-dihydroquinazolin-6-yl)oxy]-4-fluorophenyl}-3-fluoropyrrolidine-1-sulfonamide], the DC50 at B-RAF V600E was 5 to 50 nM; on B-RAF G466V it was not above 1 nM. Further, the Dmax at B-RAF V600E was 35 to 70%; at B-RAF G466V it was not above 35%.

On B-RAF V600E, `N#Cc1c(NS(=O)(=O)N2CC[C@@H](F)C2)ccc(F)c1Oc1ccc2ncn(-c3ccc(N4CCN(c5ccc6c(c5)CN(C5CCC(=O)NC5=O)C6=O)CC4)nc3)c(=O)c2c1` (some centres unmarked) [Example 143] registered a DC50 not above 5 nM and a Dmax of 35 to 70%. Besides, at B-RAF G466V, the DC50 is more than 30 nM.

Turning to `N#Cc1c(NS(=O)(=O)N2CC[C@@H](F)C2)ccc(F)c1Oc1ccc2ncn(-c3ccc(N4CCC(COCC5CCN(c6ccc7c(c6)C(=O)N(C6CCC(=O)NC6=O)C7=O)CC5)CC4)nc3)c(=O)c2c1` (stereo partly drawn) [Example 144, (3R)-N-(2-cyano-3-{[3-(6-{4-[{{1-[2-(2,6-dioxopiperidin-3-yl)-1,3-dioxo-2,3-dihydro-1H-isoindol-5-yl]piperidin-4-yl}methoxy)methyl]piperidin-1-yl}pyridin-3-yl)-4-oxo-3,4-dihydroquinazolin-6-yl]oxy}-4-fluorophenyl)-3-fluoropyrrolidine-1-sulfonamide], at B-RAF V600E, the DC50 was 5 to 50 nM and the Dmax is not above 35%. On B-RAF G466V, this compound showed a DC50 of 10 to 30 nM and a Dmax not above 35%.

At B-RAF V600E, `N#Cc1c(NS(=O)(=O)N2CC[C@@H](F)C2)ccc(F)c1Oc1ccc2ncn(-c3ccc(N4CCC5(CCN(CC6CCN(c7ccc8c(c7)C(=O)N(C7CCC(=O)NC7=O)C8=O)CC6)CC5)CC4)nc3)c(=O)c2c1` (stereo partly drawn) [Example 145, (3R)-N-{2-cyano-3-[(3-{6-[9-({1-[2-(2,6-dioxopiperidin-3-yl)-1,3-dioxo-2,3-dihydro-1H-isoindol-5-yl]piperidin-4-yl}methyl)-3,9-diazaspiro[5.5]undecan-3-yl]pyridin-3-yl}-4-oxo-3,4-dihydroquinazolin-6-yl)oxy]-4-fluorophenyl}-3-fluoropyrrolidine-1-sulfonamide] returned a DC50 of 50 to 500 nM and a Dmax of 35 to 70%. At B-RAF G466V, this compound came in with a 50% degradation concentration (DC50) of 1 to 10 nM and a Dmax of 35 to 70%.

With `N#Cc1c(NS(=O)(=O)N2CC[C@@H](F)C2)ccc(F)c1Oc1ccc2ncn(-c3ccc(N4CCC(CN5CCC6(CC5)CCN(c5ccc7c(c5)C(=O)N(C5CCC(=O)NC5=O)C7=O)CC6)CC4)nc3)c(=O)c2c1` (stereo partly drawn) [Example 146, (3R)-N-{2-cyano-3-[(3-{6-[4-({9-[2-(2,6-dioxopiperidin-3-yl)-1,3-dioxo-2,3-dihydro-1H-isoindol-5-yl]-3,9-diazaspiro[5.5]undecan-3-yl}methyl)piperidin-1-yl]pyridin-3-yl}-4-oxo-3,4-dihydroquinazolin-6-yl)oxy]-4-fluorophenyl}-3-fluoropyrrolidine-1-sulfonamide], the DC50 lay in the range of 5 to 50 nM on B-RAF V600E and 1 to 10 nM on B-RAF G466V. In addition, the Dmax on B-RAF V600E and on B-RAF G466V was 35 to 70% each time.

Source of the values: US11957759B1, “Rapidly accelerated fibrosarcoma (RAF) degrading compounds and associated methods of use” (Arvinas Operations, Inc., priority 2022, dated 2024).
